Results from ChEMBL document CHEMBL1157539, “Thousands of chemical starting points for antimalarial lead identification” (Nature, 2010).

These compounds were tested on Plasmodium falciparum (assay: GSK_TCMDC: Inhibition of Plasmodium falciparum 3D7 in whole erythrocytes, using parasite LDH activity as an index of growth.). Conditions: Plasmodium falciparum, 3D7.
Assay type: functional, organism-based
`COc1ccc(Nc2nc(N/N=C/c3ccc(O)cc3)nc(Nc3ccc([N+](=O)[O-])cc3)n2)cc1` showed an XC50 of 1120 nM. With `O=[N+]([O-])c1ccc(Nc2nc(N/N=C/c3cc(Cl)cc(Cl)c3O)nc(Nc3ccccc3)n2)cc1` the XC50 was 671 nM. With `CCN(CC)CCN(Cc1ccc(-c2ccc(C(F)(F)F)cc2)cc1)C(=O)Cn1c(CCc2ccc(F)c(F)c2F)nc(=O)c2cccnc21` the XC50 was 1130 nM. Work on `COc1ccc(Nc2ncc3c(-c4cccc(NC(=O)Cc5ccc(O)cc5)c4)c[nH]c3n2)cc1OC` yielded an XC50 of 570 nM. In the case of `COc1ccc(Cl)cc1N1CCN(CCCNC(=O)c2ccc(-c3nc4ccc(C(F)(F)F)cc4[nH]3)c(C)c2)CC1`, the XC50 was 762 nM. In the case of `O=C(Nc1ccccc1)c1ccc(-c2cc3ccncc3cc2OC2CCNCC2)s1`, the XC50 was 654 nM. `COc1ccc(NC(=O)/C=C/c2ccccc2Cl)cc1OCCN1CCN(c2ccncc2)CC1` showed an XC50 of 728 nM. With `Cc1cc(N)nc2cc(CNCCc3ccccc3Br)ccc12` the XC50 was 129 nM. Work on `CC1CN(CCCn2c3ccccc3c3ccc(C(=O)CCCN(C)C)cc32)CC(C)N1` (centres undefined) yielded an XC50 of 809 nM. `CN(C)CCNCc1nc(-c2ccc3c(Nc4ccc(Cl)cc4F)ccnc3c2)cs1` was tested, and the XC50 was 809 nM. Compound `COc1ccc(S(=O)(=O)Nc2ccc(C(=O)NCc3ccccc3C(F)(F)F)cc2)cc1N1CCN(CC2CC2)CC1` has an XC50 of 1150 nM. With `CC1(C)NC(N)=NC(=N)N1OCOc1cc(Cl)c(Cl)cc1Cl` the XC50 was 3.2 nM. With `CC(=O)NC(c1cccs1)c1cc(Cl)c2cccnc2c1O` (centres undefined) the XC50 was 317 nM. `COc1cccc(NC(=O)NCCNc2ccnc(Nc3ccc(F)cc3)n2)c1` was tested, and the XC50 was 917 nM. In the case of `O=C(/C=C/c1cccc2c1OCO2)Nc1ccnc2ccncc12`, the XC50 was 895 nM. `Cc1cc(N2CCCC2)nc(Nc2ccc(NC(=O)c3ccccc3C)cc2)n1` showed an XC50 of 724 nM. `CN1CCCN(Cc2cccc(-c3cccc(NC(=O)c4cccc(C#N)c4)c3)c2)CC1` showed an XC50 of 818 nM. For `CO/C(=C\C=C\c1cc2cc(Cl)c(Cl)cc2[nH]1)C(=O)NCCCN(C)CCN(C)c1ccccc1`, the XC50 was 828 nM. `CCOC(=O)c1c(NC(=O)c2ccccc2)sc2c(O)c(CN(CC)CC)ccc12` was tested, and the XC50 was 969 nM. With `O=C(Nc1ccc(Cl)c(Cl)c1)N1CCC(CN2CCC(c3c[nH]c4ccccc34)CC2)CC1` the XC50 was 295 nM. For `CC1CN(c2cnn(C/C=C/c3ccc(NC(=O)c4ccc(Cl)cc4)cc3)c(=O)c2Cl)CC(C)N1` (centres undefined), the XC50 was 853 nM. Compound `O=C(Cc1cccc(Cl)c1)Nc1cccc(-c2c[nH]c3nc(Nc4ccccc4)ncc23)c1` has an XC50 of 678 nM. `O=c1cc(NCCCNCc2ccc(C(F)(F)F)c(F)c2)[nH]c2ccccc12` gave an XC50 of 1190 nM. `Oc1ccc(-c2ccccc2)cc1CN1CCCCC1` showed an XC50 of 903 nM. `CN1CCC(N2CCN(Cc3ccc(-c4ccc(-c5nc6ccccc6[nH]5)s4)cc3)CC2)CC1` gave an XC50 of 140 nM. `Cc1onc(-c2ccc(Cl)cc2)c1-c1ccnn1S(=O)(=O)c1ccc(Cl)cc1` was tested, and the XC50 was 711 nM. In the case of `COc1cc(C(=O)NC2CCN(Cc3ccccc3)CC2)ccc1-c1nc2c(Cl)cc(C(F)(F)F)cc2[nH]1`, the XC50 was 670 nM. `CC(O)C1CCCCN1C(=O)c1ccc(-c2ccc(-c3nc4ccccc4[nH]3)s2)cc1` (centres undefined) showed an XC50 of 966 nM. `Fc1ccc2c(NN=Cc3ccccc3F)ccnc2c1` gave an XC50 of 562 nM. For `COc1cc2c(cc1C(F)(F)F)N(C(=O)Nc1cc(-c3ccncc3)cc(-c3cccnc3)c1)CC2`, the XC50 was 619 nM. With `COc1ccc2nccc([C@@H](O)CN3CCC(NCc4cc5cccnc5[nH]4)CC3)c2n1` the XC50 was 956 nM. Compound `Cc1cc(N[C@@H](Cc2ccccc2)C(=O)Nc2ccccc2)nc(NCC2CCCCC2)n1` has an XC50 of 761 nM. For `COc1ccc(CC2(c3ccc(F)cc3)N=C(N)N(CCCc3cccnc3)C2=O)cc1` (centres undefined), the XC50 was 668 nM. Work on `CCOc1ccc(-c2noc(-c3c[nH]c4ccccc4c3=O)n2)cc1` yielded an XC50 of 205 nM. Compound `COc1ccccc1-c1ccc(CNC(=O)C(CN2CCN(C)CC2)c2ccccc2)cc1` (centres undefined) has an XC50 of 1260 nM. Compound `Cc1cccc2nc(-c3ccc(-c4cccc(NC(=O)c5cnn6cccnc56)c4)cc3)[nH]c12` has an XC50 of 872 nM. In the case of `O=C(Nc1cc(Cl)cc(Cl)c1)c1cc(Cl)c(=O)n(Cc2ccc(Cl)cc2)c1`, the XC50 was 863 nM. Compound `O=C(NC1CC1)c1ccc(N2CCC(c3ccccc3)CC2)nc1` has an XC50 of 1110 nM. `O=C(Nc1cccc(-c2ccc(-c3nc4cc(F)ccc4[nH]3)cc2)c1)c1ccoc1` gave an XC50 of 962 nM. For `c1ccc(CNCc2cccc(-c3ccc(-c4nc5ccccc5[nH]4)cc3)c2)cc1`, the XC50 was 822 nM. `Cc1ccccc1C1CCN(C2CCC(NC(=O)/C=C/c3ccc(F)c(F)c3)CC2)CC1` (centres undefined) was tested, and the XC50 was 945 nM. `COc1ccc2nccc([C@@H](O)CN3CCC(NCc4cc5cc([N+](=O)[O-])ccc5[nH]4)CC3)c2c1` showed an XC50 of 117 nM. `O=C(NC1CCCC1)c1cc2c(=O)n3ccccc3nc2[nH]/c1=N/CCc1ccccc1` was tested, and the XC50 was 649 nM. Compound `NCc1ccc(-c2ccccc2CNC2CCN(Cc3ccccc3)CC2)cc1` has an XC50 of 765 nM. Compound `Cc1sc(C)c(C(F)(F)F)c1CNCCCNc1cc(=O)c2ccccc2[nH]1` has an XC50 of 1100 nM. With `CCCCCCCCOc1ccc(N2C(N)=NC(N)=NC2(C)C)cc1` the XC50 was 502 nM. `NS(=O)(=O)c1cccc(Nc2nc(N[C@@H]3CCNC3)nc3cc[nH]c(=O)c23)c1` gave an XC50 of 940 nM. `c1ccc(Oc2ccc(Nc3nc(NCCc4c[nH]cn4)nc(NC4CCCC4)n3)cc2)cc1` showed an XC50 of 1030 nM. For `OC(c1ccc2ccccc2c1)C1CN(CCc2ccccc2)CCC1(O)c1ccccc1` (centres undefined), the XC50 was 554 nM. For `CCCNCc1ccc(-c2ccc(CN(Cc3cnc(C)cn3)C(=O)CC#N)cc2)nc1`, the XC50 was 1220 nM. For `O=C(Nc1cccc(C(F)(F)F)c1)N1CCOC(CCN2CCC3(CCc4ccccc43)CC2)(c2ccc(Cl)c(Cl)c2)C1` (centres undefined), the XC50 was 736 nM. `O=C(Nc1cccc(-c2nn3ccccc3c2-c2ccnc(Nc3cccc(C(F)(F)F)c3)n2)c1)c1c(F)cccc1F` was tested, and the XC50 was 627 nM. In the case of `Cc1cc(N(C)CCCN2CCCCC2)nc(Nc2ccc(Cl)cc2)n1`, the XC50 was 188 nM. Compound `c1cc2[nH]c(CCCc3nc4cc(C5=N[C@H]6CCCC[C@H]6N5)ccc4[nH]3)nc2cc1C1=N[C@@H]2CCCC[C@@H]2N1` has an XC50 of 1240 nM. `Cc1cc(N[C@@H](Cc2ccccc2)C(=O)NCc2cccc(F)c2)nc(NCc2ccccc2C)n1` was tested, and the XC50 was 981 nM. `Cc1ccc(S(=O)(=O)Nc2ccc(Nc3nccc(Nc4cccc5[nH]ncc45)n3)cc2)cc1` gave an XC50 of 958 nM. Work on `CO/C(=C\C=C\c1cc2cc(Cl)c(Cl)cc2[nH]1)C(=O)NCCCN1CCN(c2cccc(CCO)c2)CC1` yielded an XC50 of 716 nM. For `N#Cc1cccc(Nc2cc(C(F)(F)F)nc(Nc3ccccc3)n2)c1`, the XC50 was 1440 nM. For `Fc1ccc2c(NN=CC=Cc3ccccc3)ccnc2c1`, the XC50 was 779 nM. Compound `O=C(NCCN1CCCC1)c1cccc(-c2ccc(-c3nc4cc(F)ccc4[nH]3)cc2)c1` has an XC50 of 722 nM. With `O=C(Nc1cccc(-c2cccc(-c3nc4cc(F)ccc4[nH]3)c2)c1)c1csnn1` the XC50 was 788 nM. `CC(C)Oc1ccc(C=CC(=O)Nc2noc3ccccc23)cc1` was tested, and the XC50 was 288 nM. In the case of `Cc1ccc2c(c1)NCC21CCN(C[C@@H](O)C2CCN(c3cc(C#N)ccn3)CC2)CC1C` (some centres undefined), the XC50 was 606 nM. Compound `CN1CCN(Cc2ccc(-c3cc4nccc(Nc5ccc(Oc6ccccc6)cc5)c4cc3Cl)o2)CC1` has an XC50 of 979 nM. Work on `CC1CCN(CC[C@H]2CCCN2S(=O)(=O)c2cccc(NC(=O)c3ccc(-c4ccc(Cl)cc4)o3)c2)CC1` yielded an XC50 of 693 nM. With `Fc1ccc(OC2CN(c3nccc(NCc4ccccc4Cl)n3)C2)cc1` the XC50 was 898 nM. For `N#Cc1ccc2c(c1)CCN(CCC1CCC(NC(=O)/C=C/c3ccc(Cl)c(Cl)c3)CC1)CC2` (centres undefined), the XC50 was 422 nM. For `OC1CCCN(Cc2cccc(-c3ccc(-c4nc5cc(F)ccc5[nH]4)cc3)c2)C1` (centres undefined), the XC50 was 780 nM. `COc1ccccc1NC(=O)Nc1ccc(-c2cccc(-c3nc4ccccc4[nH]3)c2)cc1` gave an XC50 of 641 nM.
